According to patent US20260297060A1, “COMPOUNDS FOR THE DEGRADATION OF MUTANT BRAF” (C4 THERAPEUTICS, INC., priority 2023, published 2026):

What was measured:
Format in all cases: in vivo, BALB/c nude mice
[1] = Example 6 pharmacokinetics assay for efficacy study (plasma, liver); conditions: 10 mg/kg, p.o., BID × 21 days; for concentration at 6 h: mouse, po
Experimental: For efficacy study, compounds were tested in the A375 human melanoma xenografts. Known BRAF inhibitors encorafenib, and dabrafenib were used as positive controls. Encorafenib and dabrafenib were administered to BALB/c nude mice bearing A375 tumors on PG-D1 and dosed PO daily (QD) for 3 weeks. Encorafenib was dosed at 35 mg/kg. Dabrafenib was dosed at 100 mg/kg. Compound 83, Compound 93, Compound 70, and Compound 54 were administered to BALB/c nude mice bearing A375 tumors on PG-DO and dosed PO twice per day (BID) for 3 weeks. Compound 83, Compound 93, Compound 70, and Compound 54 were dosed at 10 mg/kg.
(§1) The plasma samples were collected at predetermined time points for PK analysis. The mice were euthanized at predetermined time points post the treatment. The blood samples were collected into the 1.5 mL Eppendorf tubes containing 15 μL of 0.5 M EDTA-K2. And then the anticoagulant blood samples were centrifuged at 2,500 g at 4° C. for 15 minutes. The plasma samples were separated into 2 aliquots. The 1st was used for PK analysis, and the 2nd served as backup. The samples were stored at −80° C. before bioanalysis.
(§2) Liver samples were collected at predetermined time points for PK analysis. The left lobe of the liver was dissected out and split into 2 parts. The 1st part was used for PK analysis and the 2nd part served as the backup for the study. The samples were transferred into pre-labeled tubes and quickly froze in liquid nitrogen within 2 minutes after dissection. The samples were stored at −80° C. before bioanalysis.
For efficacy study, the harvested plasma and liver were processed for pharmacokinetics analysis by LC/MS/MS with a concentration range of 2.00-2000 ng/mL for Encorafenib and Dabrafenib in plasma, 0.20-200 ng/mL for Encorafenib and Dabrafenib in liver, 50.0-50000 ng/mL for compound 83 and compound 70 in plasma, 20.0-20000 ng/mL for Compound 93 and Compound 54 in plasma, 5.00-5000 ng/mL for compound 93, compound 83, compound 70 and compound 54 in liver.

[2] = Example 7 pharmacokinetics assay for efficacy study (plasma, liver); conditions: mouse, po, 10 mg/kg, p.o.
Experimental: For efficacy study, agents were tested in the A375 human melanoma xenografts. Compound 118, Compound 156, and Compound 180 were administered to BALB/c nude mice bearing A375 xenografts from day 0 and dosed p.o. twice per day (BID). Compound 141 was administered from day 0 and dosed p.o. twice per day (BID) or dosed p.o. daily (QD) from day 1. Compound 141, Compound 118, Compound 156, and Compound 180 were dosed at 10 mg/kg for 14 days. The known BRAF inhibitor Dabrafenib was used as a positive control. Dabrafenib was administered from day 1 and dosed p.o. daily (QD) for 14 days and dosed at 100 mg/kg.
as §1, §2
The harvested plasma and liver samples were processed for pharmacokinetics analysis by LC-MS/MS with a concentration range of 0.500~500 ng/mL for Dabrafenib in plasma and liver homogenate, 20.0~20,000 ng/mL for Compound 141, Compound 180 and Compound 118 in plasma and liver, 10.0~10,000 ng/mL for Compound 156 in plasma and liver.

[3] = Example 9 pharmacokinetics assay for efficacy study Part I and II (plasma, liver); conditions: mouse, po, 10 mg/kg, p.o., BID × 14 days, 6 h following treatment, ± SEM
Experimental: For efficacy study Part I, agents were tested in the A375 human melanoma xenografts. Compound 218 and Compound 157 were administered to BALB/c nude mice bearing A375 xenografts from day 0 and dosed twice a day (BID) for 14 days. Compound 218 and Compound 157 were dosed at 10 mg/kg via p.o.. Dabrafenib was administered from day 1 daily (QD) for 14 days and dosed at 100 mg/kg via p.o..
For efficacy study Part II, agents were tested in the A375 human melanoma xenografts model. Compound 133, Compound 144 and Compound 198 were administered to BALB/c nude mice bearing A375 xenografts from day 0 and dosed twice a day (BID) for 14 days. Compound 133, Compound 144 and Compound 198 were dosed at 10 mg/kg via p.o..
as §1, §2
The harvested plasma and liver samples were processed for pharmacokinetics analysis by LC-MS/MS with a concentration range of 1.00-1,000 ng/mL for Dabrafenib in plasma and liver homogenate, 10.0-10,000 ng/mL for Compound 218, Compound 157, Compound 133, Compound 144 and Compound 198 in plasma and liver homogenate.

[4] = liver, read-out: Concentration in Liver (mean ± SEM)
[5] = plasma, read-out: Concentration in Plasma (mean ± SEM)
[6] = liver, BID × 14 days, read-out: Concentration in Liver (mean ± SEM)
[7] = plasma, BID × 14 days, read-out: Concentration in Plasma (mean ± SEM)
[8] = liver, read-out: Mean Concentration in Liver
[9] = plasma, read-out: Mean Concentration in Plasma

Compound	concentration at 6 h [1, 4]	concentration at 6 h [1, 5]	concentration at 6 h [2, 6]	concentration at 6 h [2, 7]	further results
CCN(C)S(=O)(=O)Nc1ccc(F)c(Oc2ccc3ncc([C@@H]4COC5(CCN(C6CCC(c7cc8c(cc7F)c(N7CCC(=O)NC7=O)nn8C)CC6)CC5)C4)nc3c2)c1C#N (single isomer, unassigned) [Compound 54]	4240 ± 955 ng/g	3990 ± 634 ng/mL			
CCN(C)S(=O)(=O)Nc1ccc(F)c(Oc2ccc3ncn([C@H]4COC5(CCN(C6CC(c7cc8c(cc7F)c(N7CCC(=O)NC7=O)nn8C)C6)CC5)C4)c(=O)c3c2)c1C#N (single isomer, unassigned) [Compound 70]					Concentration in Liver (mean ± SEM) ([1]; 6 h): 6392 ± 570 ng/g; Concentration in Plasma (mean ± SEM) ([1]; 6 h): 16083 ± 1345 ng/mL
CCN(C)S(=O)(=O)Nc1ccc(F)c(Oc2ccc3ncn(C4CC5(CCN(C6CCC(c7cc8c(cc7F)c(N7CCC(=O)NC7=O)nn8C)CC6F)CC5)C4)c(=O)c3c2)c1C#N (single isomer, unassigned) [Compound 83, 6-[2-cyano-3-[[ethyl(methyl)sulfamoyl]amino]-6-fluoro-phenoxy]-3-[7-[4-[3-(2,4-dioxohexahydropyrimidin-1-yl)-5-fluoro-1-methyl-indazol-6-yl]-2-fluoro-cyclohexyl]-7-azaspiro[3.5]nonan-2-yl]-4-oxo-quinazoline]	11000 ± 1050 ng/g	17100 ± 1510 ng/mL			
CCN(C)S(=O)(=O)Nc1ccc(F)c(Oc2ccc3ncn(C4CC5(CCN(C6CCN(c7cc8c(cc7F)c(N7CCC(=O)NC7=O)nn8C)CC6)CC5)C4)c(=O)c3c2)c1C#N [Compound 156, 6-[2-cyano-3-[[ethyl(methyl)sulfamoyl]amino]-6-fluoro-phenoxy]-3-[7-[1-[3-(2,4-dioxohexahydropyrimidin-1-yl)-5-fluoro-1-methyl-indazol-6-yl]-4-piperidyl]-7-azaspiro[3.5]nonan-2-yl]-4-oxo-quinazoline]			1840 ± 305 ng/g	1870 ± 359 ng/mL	
CCN(C)S(=O)(=O)Nc1ccc(F)c(Oc2ccc3ncc(OCC4CCN(C5CCC(c6cc7c(cc6F)c(N6CCC(=O)NC6=O)nn7C)CC5)CC4)nc3c2)c1C#N (single isomer, unassigned) [Compound 118, 7-[2-cyano-3-[[ethyl(methyl)sulfamoyl]amino]-6-fluoro-phenoxy]-2-[[1-[4-[3-(2,4-dioxohexahydropyrimidin-1-yl)-5-fluoro-1-methyl-indazol-6-yl]cyclohexyl]-4-piperidyl]methoxy]quinoxaline]			102000 ± 1600 ng/g	4160 ± 503 ng/mL	
CCN(C)S(=O)(=O)Nc1ccc(F)c(Oc2ccc3ncn(C4CC5(CCN(C6CC7(C6)CN(c6cc8c(cc6F)c(N6CCC(=O)NC6=O)nn8C)C7)CC5)C4)c(=O)c3c2)c1C#N (stereo not shown) [Compound 141, 6-[2-cyano-3-[[ethyl(methyl)sulfamoyl]amino]-6-fluoro-phenoxy]-3-[7-[2-[3-(2,4-dioxohexahydropyrimidin-1-yl)-5-fluoro-1-methyl-indazol-6-yl]-2-azaspiro[3.3]heptan-6-yl]-7-azaspiro[3.5]nonan-2-yl]-4-oxo-quinazoline]			6570 ± 341 ng/g	8750 ± 907 ng/mL	concentration at 6 h ([2]; liver, QD × 14 days, read-out: Concentration in Liver (mean ± SEM)): 7500 ± 286 ng/g; concentration at 6 h ([2]; plasma, QD × 14 days, read-out: Concentration in Plasma (mean ± SEM)): 11000 ± 474 ng/mL
CCN(C)S(=O)(=O)Nc1ccc(F)c(Oc2ccc3ncc(C4CC5(CCN(C6CCC(c7cc8c(cc7F)c(N7CCC(=O)NC7=O)nn8C)CC6)CC5)C4)nc3c2)c1C#N (single isomer, unassigned) [Compound 180, 7-[2-cyano-3-[[ethyl(methyl)sulfamoyl]amino]-6-fluoro-phenoxy]-2-[7-[4-[3-(2,4-dioxohexahydropyrimidin-1-yl)-5-fluoro-1-methyl-indazol-6-yl]cyclohexyl]-7-azaspiro[3.5]nonan-2-yl]quinoxaline]			2400 ± 425 ng/g	1920 ± 363 ng/mL	
CO[C@H]1CCN(S(=O)(=O)Nc2ccc(F)c(Oc3ccc4ncn([C@H]5COC6(CCN(C7CC8(C7)CN(c7cc9c(cc7F)c(N7CCC(=O)NC7=O)nn9C)C8)CC6)C5)c(=O)c4c3)c2C#N)C1 [Compound 157, (3S)-N-[2-cyano-3-[3-[(3R)-8-[2-[3-(2,4-dioxohexahydropyrimidin-1-yl)-5-fluoro-1-methyl-indazol-6-yl]-2-azaspiro[3.3]heptan-6-yl]-1-oxa-8-azaspiro[4.5]decan-3-yl]-4-oxo-quinazolin-6-yl]oxy-4-fluoro-phenyl]-3-methoxy-pyrrolidine-1-sulfonamide]					concentration at 6 h [3, 8]: 2450 ± 217 ng/g; concentration at 6 h [3, 9]: 12500 ± 745 ng/mL
CCN(C)S(=O)(=O)Nc1ccc(F)c(Oc2ccc3ncc(OC4CC5(CCN(C6CCC(c7cc8c(cc7F)c(N7CCC(=O)NC7=O)nn8C)CC6)CC5)C4)nc3c2)c1C#N (single isomer, unassigned) [Compound 218, 7-[2-cyano-3-[[ethyl(methyl)sulfamoyl]amino]-6-fluoro-phenoxy]-2-[[7-[4-[3-(2,4-dioxohexahydropyrimidin-1-yl)-5-fluoro-1-methyl-indazol-6-yl]cyclohexyl]-7-azaspiro[3.5]nonan-2-yl]oxy]quinoxaline]					concentration at 6 h [3, 8]: 5640 ± 588 ng/g; concentration at 6 h [3, 9]: 2270 ± 201 ng/mL
Cn1nc(N2CCC(=O)NC2=O)c2cc(F)c(C3CCC(N4CCC5(CC4)CC(n4cnc6ccc(Oc7c(F)ccc(NS(=O)(=O)C8CCCC8)c7C#N)cc6c4=O)C5)CC3)cc21 (single isomer, unassigned) [Compound 93, N-[2-cyano-3-[3-[7-[4-[3-(2,4-dioxohexahydropyrimidin-1-yl)-5-fluoro-1-methyl-indazol-6-yl]cyclohexyl]-7-azaspiro[3.5]nonan-2-yl]-4-oxo-quinazolin-6-yl]oxy-4-fluoro-phenyl]cyclopentanesulfonamide]	652 ± 180 ng/g	1100 ± 389 ng/mL			
